The values below come from US8263598B2, “Substituted sulfonamide compounds” (Gruenenthal GmbH, priority 2008, dated 2012).

The inhibition is the change of the read-out against control, counted positive when it falls.

Assay [1] deals with T1, human B1R receptor (hB1R) (Homo sapiens, UniProt P46663).
T1 construct: host or cells: CHO K1 cells
T1 sequence (P46663 1-353): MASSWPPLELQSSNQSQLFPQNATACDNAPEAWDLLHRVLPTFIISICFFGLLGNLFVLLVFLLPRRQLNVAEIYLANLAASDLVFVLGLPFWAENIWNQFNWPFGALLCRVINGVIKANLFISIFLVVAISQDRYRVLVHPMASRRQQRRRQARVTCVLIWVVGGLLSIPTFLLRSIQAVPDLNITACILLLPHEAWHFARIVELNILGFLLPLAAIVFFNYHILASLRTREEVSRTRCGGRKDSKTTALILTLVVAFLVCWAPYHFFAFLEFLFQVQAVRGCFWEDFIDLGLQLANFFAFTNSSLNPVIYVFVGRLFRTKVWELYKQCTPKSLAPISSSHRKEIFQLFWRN
Nature of the assay: FLIPR Ca2+ assay on human bradykinin 1 receptor (CHO K1 hB1R cells). It is filed as cell-based. The following applies: test substance 10 μM; CHO K1 cells with human B1R gene; agonist Lys-Des-Arg9-bradykinin 0.5 nM; compared to maximum achievable inhibition. In outline: (§1)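 CHO K1 cells stably expressing human or rat B1R were loaded with Fluo-4 and tested at 10 μM compound. Ca²⁺ signal was read in FLIPR as % activation versus agonist. After 10 min, agonist was added (hB1R: Lys-Des-Arg9-bradykinin 0.5 nM; rB1R: Des-Arg9-bradykinin 100 nM), and % inhibition was taken relative to maximum achievable inhibition.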

Assay [2] has as its target T2, B1R receptor of rats (rB1R) (Rattus norvegicus, UniProt P97583).
T2 construct: host or cells: CHO K1 cells
T2 sequence (P97583 1-337): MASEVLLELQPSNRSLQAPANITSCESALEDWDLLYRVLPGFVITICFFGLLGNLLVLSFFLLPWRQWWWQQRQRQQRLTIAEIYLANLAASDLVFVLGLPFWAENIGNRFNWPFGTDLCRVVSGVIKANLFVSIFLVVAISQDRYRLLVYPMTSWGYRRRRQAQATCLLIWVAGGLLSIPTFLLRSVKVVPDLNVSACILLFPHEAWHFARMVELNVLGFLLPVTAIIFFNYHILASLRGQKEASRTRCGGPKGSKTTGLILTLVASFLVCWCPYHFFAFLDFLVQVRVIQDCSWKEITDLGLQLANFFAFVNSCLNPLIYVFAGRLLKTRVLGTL
The assay is described as follows: FLIPR Ca2+ assay on rat bradykinin 1 receptor (CHO K1 rB1R cells). It is filed as cell-based. Conditions: test substance 10 μM; CHO K1 cells with B1R gene of rats; agonist Des-Arg9-bradykinin 100 nM; compared to maximum achievable inhibition. The procedure, abridged: as §1

In the case of `COc1cc(C)c(S(=O)(=O)N(C)CCOCC(=O)N2CCn3c(CN4CCN(C)CC4)ccc3C2)c(C)c1` [Example 9, 4-methoxy-N,2,6-trimethyl-N-(2-(2-(6-((4-methylpiperazin-1-yl)methyl)-3,4-dihydropyrrolo[1,2-a]pyrazin-2(1H)-yl)-2-oxoethoxy)ethyl)benzenesulfonamide], the inhibition at 10 µM in assay [1] was 101%; in assay [2], 102%.

As to `Cc1cc(C)c(S(=O)(=O)N(C)CCOCC(=O)N2CCn3c(CN4CCCCC4)ccc3C2c2ccccc2)c(C)c1` (stereo not shown) [Example 141, N,2,4,6-tetramethyl-N-(2-(2-oxo-2-(1-phenyl-6-(piperidin-1-ylmethyl)-3,4-dihydropyrrolo[1,2-a]pyrazin-2(1H)-yl)ethoxy)ethyl)benzenesulfonamide], the inhibition at 10 µM was 103% in assay [1] and 101% in assay [2].

Turning to `COc1cc(C)c(S(=O)(=O)N(CCOCC(=O)N2CCn3cccc3C2c2ccccc2)CC(C)C)c(C)c1C` (stereo not shown) [Example 23, N-isobutyl-4-methoxy-2,3,6-trimethyl-N-(2-(2-oxo-2-(1-phenyl-3,4-dihydropyrrolo[1,2-a]pyrazin-2(1H)-yl)ethoxy)ethyl)benzenesulfonamide], the inhibition at 10 µM stood at 47% in assay [1] and 97% in assay [2].

Take `COc1c(C)cc(S(=O)(=O)N(C)CCOCC(=O)N2CCn3cccc3C2c2cccc(C(F)(F)F)c2)c(C)c1C` (stereo not shown) [Example 37, 4-methoxy-N,2,3,5-tetramethyl-N-(2-(2-oxo-2-(1-(3-(trifluoromethyl)phenyl)-3,4-dihydropyrrolo[1,2-a]pyrazin-2(1H)-yl)ethoxy)ethyl)benzenesulfonamide]: the inhibition at 10 µM in assay [1] turned out to be 38%; in assay [2] it was 72%.

On to `COc1cc(C)c(S(=O)(=O)N(CCOCC(=O)N2CCn3c(CN4CCOCC4)ccc3C2c2ccccc2)CC(C)C)c(C)c1C` (stereo not shown) [Example 94, N-isobutyl-4-methoxy-2,3,6-trimethyl-N-(2-(2-(6-(morpholinomethyl)-1-phenyl-3,4-dihydropyrrolo[1,2-a]pyrazin-2(1H)-yl)-2-oxoethoxy)ethyl)benzene-sulfonamide], for which the inhibition at 10 µM in assay [1] came out at 104%; in assay [2], 102%.

Turning to `COc1cc(C)c(S(=O)(=O)N(C)CCOCC(=O)N2CCn3cccc3C2C(C)C)c(C)c1` (stereo not shown) [Example 137, N-(2-(2-(1-isopropyl-3,4-dihydropyrrolo[1,2-a]pyrazin-2(1H)-yl)-2-oxoethoxy)ethyl)-4-methoxy-N,2,6-trimethylbenzenesulfonamide], the figures for the inhibition at 10 µM in assay [1] and in assay [2] were 104% and 102%, respectively.

Take `CCCCC1c2ccc(CN(C)C)n2CCN1C(=O)COCCN(C)S(=O)(=O)c1c(C)cc(OC)cc1C` (stereo not shown) [Example 134, N-(2-(2-(1-butyl-6-((dimethylamino)methyl)-3,4-dihydropyrrolo[1,2-a]pyrazin-2(1H)-yl)-2-oxoethoxy)ethyl)-4-methoxy-N,2,6-trimethylbenzenesulfonamide]: the results for the inhibition at 10 µM in assay [1] and in assay [2] were 104% and 103%, respectively.

Regarding `COc1cc(C)c(S(=O)(=O)N(C)CCOCC(=O)N2CCn3c(Cc4ccncc4)ccc3C2)c(C)c1` [Example 165, 4-Methoxy-N,2,6-trimethyl-N-(2-(2-oxo-2-(6-(pyridin-4-ylmethyl)-3,4-dihydropyrrolo[1,2-a]pyrazin-2(1H)-yl)ethoxy)ethyl)benzenesulfonamide], the inhibition at 10 µM was found to be 100% in assay [1] and 99% in assay [2].

In the case of `COc1ccc(C2c3cccn3CCN2C(=O)COCCN(C)S(=O)(=O)c2cc(C)c(OC)c(C)c2C)cc1` (stereo not shown) [Example 31, 4-methoxy-N-(2-(2-(1-(4-methoxyphenyl)-3,4-dihydropyrrolo[1,2-a]pyrazin-2(1H)-yl)-2-oxoethoxy)ethyl)-N,2,3,5-tetramethylbenzenesulfonamide], the values for the inhibition at 10 µM in assay [1] and in assay [2] were 95% and 67%, respectively.

Consider `COc1cc(C)c(S(=O)(=O)N(CCOCC(=O)N2CCn3cccc3C2c2cccnc2)CC(C)C)c(C)c1C` (stereo not shown) [Example 19, N-isobutyl-4-methoxy-2,3,6-trimethyl-N-(2-(2-oxo-2-(1-(pyridin-3-yl)-3,4-dihydropyrrolo[1,2-a]pyrazin-2(1H)-yl)ethoxy)ethyl)benzenesulfonamide], for which the inhibition at 10 µM is 101% in assay [1] and 98% in assay [2].

Consider `COc1cccc(C2c3cccn3CCN2C(=O)COCCN(C)S(=O)(=O)c2c(C)cc(OC)c(C)c2C)c1` (stereo not shown) [Example 89, 4-methoxy-N-(2-(2-(1-(3-methoxyphenyl)-3,4-dihydropyrrolo[1,2-a]pyrazin-2(1H)-yl)-2-oxoethoxy)ethyl)-N,2,3,6-tetramethylbenzenesulfonamide], for which the results for the inhibition at 10 µM in assay [1] and in assay [2] were 100% and 98%, respectively.

`COc1cc(C)c(S(=O)(=O)N(C)CCOCC(=O)N2CCn3cccc3C2c2cccc(F)c2)c(C)c1` (stereo not shown) [Example 59, N-(2-(2-(1-(3-fluorophenyl)-3,4-dihydropyrrolo[1,2-a]pyrazin-2(1H)-yl)-2-oxoethoxy)ethyl)-4-methoxy-N,2,6-trimethylbenzenesulfonamide]: the inhibition at 10 µM was determined as 95% in assay [1] and 99% in assay [2].

Take `Cc1cc(C)c(S(=O)(=O)N(C)CCOCC(=O)N2CCn3cccc3C2c2cccs2)c(C)c1` (stereo not shown) [Example 74, N,2,4,6-tetramethyl-N-(2-(2-oxo-2-(1-(thiophen-2-yl)-3,4-dihydropyrrolo[1,2-a]pyrazin-2(1H)-yl)ethoxy)ethyl)benzenesulfonamide]: the inhibition at 10 µM in assay [1] is 99%; in assay [2] it was 102%.

As for `CCC1c2cccn2CCN1C(=O)C[C@@H](NS(=O)(=O)c1ccc2ccccc2c1)c1ccccc1` (stereo partly drawn) [Example 162, N-((1R)-3-(1-Ethyl-3,4-dihydropyrrolo[1,2-a]pyrazin-2(1H)-yl)-3-oxo-1-phenylpropyl)naphthalene-2-sulfonamide], the inhibition at 10 µM in assay [1] amounted to 57%; in assay [2], 98%.

As to `COc1c(C)cc(S(=O)(=O)N(C)CCOCC(=O)N2CCn3c(CN4CCCC4)ccc3C2c2ccccc2)c(C)c1C` (stereo not shown) [Example 106, 4-methoxy-N,2,3,5-tetramethyl-N-(2-(2-oxo-2-(1-phenyl-6-(pyrrolidin-1-ylmethyl)-3,4-dihydropyrrolo[1,2-a]pyrazin-2(1H)-yl)ethoxy)ethyl)benzene-sulfonamide], the inhibition at 10 µM was 99% in assay [1] and 101% in assay [2].

For `COc1cc(C)c(S(=O)(=O)N(CCOCC(=O)N2CCn3c(CN(C)C)ccc3C2c2ccccc2)CC(C)C)c(C)c1C` (stereo not shown) [Example 91, N-(2-(2-(6-((dimethylamino)methyl)-1-phenyl-3,4-dihydropyrrolo[1,2-a]pyrazin-2(1H)-yl)-2-oxoethoxy)ethyl)-N-isobutyl-4-methoxy-2,3,6-trimethylbenzene-sulfonamide], the inhibition at 10 µM in assay [1] and in assay [2] was 103% in each case.

As for `COc1cc(C)c(S(=O)(=O)N(CCOCC(=O)N2CCn3c(CN(C)C)ccc3C2Cc2ccccc2)Cc2ccccc2)c(C)c1` (stereo not shown) [Example 129, N-benzyl-N-(2-(2-(1-benzyl-6-((dimethylamino)methyl)-3,4-dihydropyrrolo[1,2-a]pyrazin-2-(1H)-yl)-2-oxoethoxy)ethyl)-4-methoxy-2,6-dimethylbenzene-sulfonamide], the “hB1R [10 μM] % Inhibition” value in assay [1] was found to be 100%. Besides, the “rB1R [10 μM] % Inhibition” value in assay [2] is on record as 101%.
